In patent US10751378B2, “Pharmaceutical composition comprising Pistacia weinmannifolia extract, fraction of same or compound separated from same for preventing or treating chronic obstructive pulmonary disease (COPD)” (Korea Research Institute of Bioscience and Biotechnology, priority 2014, dated 2020):

Assays:
H292 cells = assay: Cytotoxicity test: H292 cell viability (CCK-8); assay type: cell-based, human; conditions: 24 hours, negative control (0.2% DMSO) = 100%
Procedure: To confirm the cytotoxicity of a Pistacia weinmannifolia extract, a fraction thereof, and a compound isolated therefrom, which were prepared and extracted in Example 1, experiments were performed by applying the method described in the existing references (Ishiyama et al., Talanta, 44, pp. 1299-1305, 1997; Tominaga et al., Anal. Commun., 36, pp. 47-50, 1999).
H292 (CRL-1848) was purchased from the American Type Culture Collection (ATCC). The H292 cells were cultured in RPMI medium (SH30027.01, RPMI 1640, Gibco) containing 10% fetal bovine serum and antibiotics, and cultured in the condition of humidified 5% CO2 atmosphere at 37° C. TNF-α was purchase from a company (300-01A, Peprotech, USA) and used.
The cells in a medium (GM) were placed in a 96-well plate at a density of (1×10^3 cells/well). After 24 hours, the cells were cultured along with a sample for one day. The cell viability rate was read via trivalues according to the manufacturer's manual using the Cell Counting Kit-8 (CK04-01, Dojindo Molecular Technologies, ML). The absorbance was measured using the VERSAmax microplate reader (SMP500-14915, Molecular Devices, USA) and the measured absorbance was converted into a cell number via a standard curve.
H292 cells, human mucosa cells of lung cancer, were suspended in RPMI medium (Gibco) containing 10% fetal bovine serum in a concentration of 5×10^4 cells/mL, inoculated to a 96 well-plate in an amount of 100 μL per each well, and allowed to be attached thereto for 12 hours. Six active fractions of Pistacia and 3 single compounds (PW11, PW12, and PW13) were treated according to concentrations, and cultured for 24 hours. As explained in the cell counting CCK-8 kit (Dojindo Molecular Technologies, ML), the CCK-8 solution (10 μL) was mixed with the medium (90 μL). The mixture (100 μL) was added to each well, reacted for the minimum 30 minutes to the maximum 4 hours, and the absorbance was measured at 570 nm. The cell viability was calculated according to Equation 1 above with reference to the negative control, which was treated with DMSO in a concentration of 0.2%, set at 100%. Cell Viability (%)=[value at OD 570 nm after treatment with an extract/value at OD 570 nm (negative control)]×100 [Equation 1]

MUC5AC = assay: Inhibition of MUC5AC protein production induced by TNF-α (immunoassay of supernatant); assay type: cell-based; conditions: TNF-α 20 ng/mL; for inhibition at 0.125 µM / inhibition at 0.25 µM / inhibition at 0.5 µM / inhibition at 1 µM: read-out: Inhibition Rate (%) of MUC5AC production
Description: To analyze the effects of the Pistacia weinmannifolia extract, a fraction thereof, and a compound isolated therefrom, prepared and extracted in Example 1, on the prevention and treatment of inflammatory diseases such as COPD, the inhibitory effect of the Pistacia weinmannifolia extract, a fraction thereof, and a compound isolated therefrom against the secretion of a related protein, MUC5AC. In this regard, to confirm the inhibitory effect of the samples in Examples on the production of MUC5AC protein, experiments were performed using the method described in the reference (Sikder, M A. et al., Phytotherapy research: PTR. 28, 62-8, 2014).
The supernatant, which was recovered for the immunoassay of the produced MUC5AC, was aliquoted into a 96 well-plate in an amount of 50 μL and dried in a homeostat set at 50° C. The resultant was washed with PBS containing 1% BSA, reacted with MUC5AC antibody (ab3649, abcam) at room temperature for one hour, and aliquoted with the secondary antibody and reacted for one hour. The resultant was rewashed, reacted with 3,3′,5,5′-tetramethylbenzidine peroxide solution (54827-17-7, Sigma-Aldrich) for 20 minutes, and the reaction was stopped with a sulfuric acid solution and the coloration was measured at 450 nm using a microplate reader (VERSAmax microplate reader, SMP500-14915, Molecular Devices, USA).

| Structure (SMILES) | H292 Cell Viability Rate (%, Mean ± SD) (H292 cells; 0.125 μM) [%] | H292 Cell Viability Rate (%, Mean ± SD) (H292 cells; 0.25 μM) [%] | H292 Cell Viability Rate (%, Mean ± SD) (H292 cells; 0.5 μM) [%] | H292 Cell Viability Rate (%, Mean ± SD) (H292 cells; 1 μM) [%] | Amount of MUC5AC Secretion (Relative % to TNF-α Treated Group) (MUC5AC; Conc. 0.125 μM) [%] | inhibition at 0.125 µM (MUC5AC; Conc. 0.125 μM) [%] | Amount of MUC5AC Secretion (Relative % to TNF-α Treated Group) (MUC5AC; Conc. 0.25 μM) [%] | inhibition at 0.25 µM (MUC5AC; Conc. 0.25 μM) [%] | Amount of MUC5AC Secretion (Relative % to TNF-α Treated Group) (MUC5AC; Conc. 0.5 μM) [%] | inhibition at 0.5 µM (MUC5AC; Conc. 0.5 μM) [%] | Amount of MUC5AC Secretion (Relative % to TNF-α Treated Group) (MUC5AC; Conc. 1 μM) [%] | inhibition at 1 µM (MUC5AC; Conc. 1 μM) [%] |
| --- | --- | --- | --- | --- | --- | --- | --- | --- | --- | --- | --- | --- |
| O=C(/C=C/c1ccc(Oc2ccc(/C=C/C(=O)c3ccc(O)cc3O)cc2O)cc1)c1ccc(O)cc1O [Compound PW12] | 95.80 ± 2.90 | 96.47 ± 3.21 | 104.50 ± 1.32 | 115.88 ± 0.50 | 75.77 ± 7.66 | 24.2 | 74.23 ± 12.98 | 25.8 | 69.50 ± 5.37 | 30.5 | 69.74 ± 8.56 | 30.3 |
| O=C(/C=C/c1ccc(Oc2ccc([C@@H]3[C@@H](C(=O)c4ccc(O)cc4O)[C@H](C(=O)c4ccc(O)cc4O)[C@H]3c3ccc(O)cc3)cc2O)cc1)c1ccc(O)cc1O [Compound PW13, di-(2,4-dihydroxybenzoyl)-(3,4-dihydroxyphenyl)-(4-hydroxyphenyl)-cyclobutane-3-O-4′-bichalcone] | 104.80 ± 2.34 | 103.53 ± 3.07 | 126.28 ± 7.75 | 71.92 ± 5.47 | 83.92 ± 9.77 | 16.1 | 82.39 ± 3.10 | 17.6 | 77.30 ± 2.33 | 22.7 | 73.76 ± 2.68 | 26.2 |
